Source: US20110059962A1, “TRANSCRIPTION FACTOR MODULATING COMPOUNDS AND METHODS OF USE THEREOF” (priority 2009, published 2011)

How the values were obtained:
LcrF (VirF) = LcrF (VirF) (Yersinia pestis, UniProt P28808); test: biochemical; format: binding, Y. pseudotuberculosis
ExsA = biological target: T1, ExsA (Pseudomonas aeruginosa, UniProt P26993); test: Inhibition of ExsA-DNA binding, cell-free chemiluminescence assay; design: species or system P. aeruginosa
T1 construct: made in house
T1 sequence (P26993 1-278): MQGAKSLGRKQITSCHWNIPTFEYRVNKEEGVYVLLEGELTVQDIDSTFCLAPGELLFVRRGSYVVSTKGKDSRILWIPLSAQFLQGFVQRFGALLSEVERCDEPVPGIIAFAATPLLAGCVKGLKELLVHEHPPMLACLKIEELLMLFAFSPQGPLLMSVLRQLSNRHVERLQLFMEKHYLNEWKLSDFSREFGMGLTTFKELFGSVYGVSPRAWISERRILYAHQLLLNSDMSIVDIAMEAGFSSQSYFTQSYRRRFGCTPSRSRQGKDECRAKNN

SoxS = biological target: T2, SoxS (Escherichia coli, UniProt P0A9E2); test: Inhibition of SoxS-DNA binding, cell-free chemiluminescence assay; design: species or system E. coli
T2 construct: made in house; host or cells: E. coli
T2 sequence (P0A9E2 1-107): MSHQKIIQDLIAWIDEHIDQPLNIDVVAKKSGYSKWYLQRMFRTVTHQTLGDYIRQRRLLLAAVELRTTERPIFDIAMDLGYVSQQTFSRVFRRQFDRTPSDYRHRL

SlyA = biological target: T3, SlyA (Salmonella typhimurium, UniProt P40676); test: Inhibition of SlyA-DNA binding, cell-free chemiluminescence assay (specificity); design: species or system S. typhimurium enterica serovar Typhimurium
T3 construct: made in house; host or cells: E. coli
T3 sequence (P40676 1-144): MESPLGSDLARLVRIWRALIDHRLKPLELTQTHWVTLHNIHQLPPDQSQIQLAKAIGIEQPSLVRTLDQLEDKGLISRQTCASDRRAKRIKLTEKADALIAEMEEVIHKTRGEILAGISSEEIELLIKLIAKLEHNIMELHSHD

[1] = test system: Y. pseudotuberculosis cytotoxicity toward J774 cells; test: microbe, parasite or virus in culture; conditions: Yersinia pseudotuberculosis, J774, read-out: % Cytotoxicity
[2] = test system: P. aeruginosa cytotoxicity toward J774 cells; test: Inhibition of P. aeruginosa cytotoxicity toward J774 macrophage-like cells, whole cell LDH release assay (CytoTox 96); design: dose or concentration left out as unconfirmed; conditions: Pseudomonas aeruginosa, J774, read-out: % Cytotoxicity
[3] = test system: pET-15b supercoiled plasmid DNA; test: Assay to detect direct DNA binding (UV fluorescence and agarose gel migration of plasmid DNA); conditions: 100 μg/mL; 100 ng pET-15b plasmid, 30 minutes at room temperature

Chain of LcrF (VirF) (P28808 whole entry, looked up): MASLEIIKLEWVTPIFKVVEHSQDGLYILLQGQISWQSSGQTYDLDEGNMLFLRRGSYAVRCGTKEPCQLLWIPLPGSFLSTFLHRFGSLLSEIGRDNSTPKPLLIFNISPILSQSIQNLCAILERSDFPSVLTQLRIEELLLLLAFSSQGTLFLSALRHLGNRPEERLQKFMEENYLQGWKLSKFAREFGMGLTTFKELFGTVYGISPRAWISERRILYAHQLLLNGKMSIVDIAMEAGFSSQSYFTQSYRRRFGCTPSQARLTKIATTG

Row | Structure (SMILES) | IC50 (LcrF (VirF)) [µM] | IC50 (ExsA) [µM] | IC50 (SoxS) [µM] | IC50 (SlyA) [µM] | activity at 50 µg/mL [1] [%] | activity [2] [%] | fluorescence under UV light and DNA migration on agarose gel [3]
1 | CC(=O)c1ccc(/C=C/C(=O)Nc2ccc(-c3nc4c(CC(=O)O)cc([N+](=O)[O-])cc4n3O)cc2)cc1 [Compound J, (2-{4-[(E)-3-(4-Acetyl-phenyl)-acryloylamino]-phenyl}-1-hydroxy-6-nitro-1H-benzoimidazol-4-yl)-acetic acid] | < 10 | < 10 | < 10 | 25 to 50 | < 75 | < 75 | –
2 | N#Cc1ccc2nc(-c3ccc(NC(=O)c4ccc(N5CCOCC5)nc4)cc3)n(O)c2c1 [Compound P, N-[4-(6-Cyano-1-hydroxy-1H-benzoimidazol-2-yl)-phenyl]-6-morpholin-4-yl-nicotinamide] | > 50 | < 10 | > 50 | – | 75 to 99 | 75 to 99 | –
3 | CC(=O)c1ccc(/C=C/C(=O)Nc2ccc(-c3nc4c(CC(=O)O)cc([N+](=O)[O-])cc4n3O)cc2)cn1 [Compound V, (2-{4-[(E)-3-(6-Acetyl-pyridin-3-yl)-acryloylamino]-phenyl}-1-hydroxy-6-nitro-1H-benzoimidazol-4-yl)-acetic acid] | < 10 | < 10 | – | 25 to 50 | < 75 | < 75 | –
4 | CSc1ccc(/C=C/C(=O)Nc2ccc(-c3nc4ccc([N+](=O)[O-])cc4n3O)cc2)cn1 [G] | 10 to 25 | < 10 | > 50 | – | < 75 | < 75 | –
5 | CCOc1ccc(-c2nc3ccc(-c4nc5ccc(N6CCN(C)CC6)cc5[nH]4)cc3[nH]2)cc1 [Hoechst 33342] | – | – | – | – | – | – | bright fluorescence under UV light and a faint smear on the gel
